Source: patent publication US5789382A, “Retro-peptide fibroblast growth factor which blocks FGF receptor” (Georgetown University, priority 1993, dated 1998)
Ends that are not written are not given here.

Experiments:
human SW-13 cells = test: growth assay with human SW-13 cells (FIG. 2, FIG. 4); assay type: cell-based; conditions: for inhibition of SW-13 cell growth: amounts added as high as 1,000 μg/ml
From the text: FIG. 2 illustrates the results of a growth assay conducted with both a peptide of the present invention (retro-peptide) and the antero-peptide sequence thereof.
FIG. 2 illustrates that both the antero-peptide and the retro-peptide are inhibitory in a growth assay with human SW-13 cells.
FIG. 4 illustrates the difference in effect on SW-13 cell growth between a 10-mer peptide sequence of the formula (SEQ ID NO:6): […]
As may be seen from FIG. 4, the 15-mer sequence has an inhibitive effect on SW-13 cell growth with increasing amount added in μg/ml. This effect becomes almost completely inhibiting in amounts added of about 100 μg/ml and greater.

water solubility = assay type: physicochemical
Description: The present retro-peptide is water-soluble and is administered by any route, especially intravenously, subcutaneously, intraperitonially, intramuscularly, orally and rectally. The peptide may be conveniently administered in dextrose 5% saline or in saline solution.

human melanoma = test: growth inhibition of human melanoma; assay type: cell-based; conditions: same concentration as in the SW-13 assay
normal human cells = test: FGF-stimulated growth of normal human cells; assay type: cell-based
[1] = tolerability in tumor-bearing mice; assay type: in vivo, athymic nude mice; conditions: 25 mg/kg daily i.p. for 8 days
Description: (§1) Human tumor cells (1 million per mouse) were inoculated in 0.1 ml of saline solution into a mammary fat pad of each mouse. Each group of treatment consisted of 10 animals. One day after the inoculation of tumor cells the animals were treated with a single daily intraperitoneal injection of saline solution (control group) or with the 15-mer retropeptide dissolved in saline solution at a dose of 25 mg per kg body weight (peptide group) or 25 mg per kg body weight of pentosanpolysulfate (pentosan polysulfate group). The treatment with peptide was continued for 8 days due to a currently still limited supply of the peptide. The pentosanpolysulfate treatment was continued throughout the whole observation period.
(§2) The mean ± standard error tumor size is 26.6±6.8 mm^2 (control group) and […] (peptide group). This difference is highly significant (p<0.003) as tested by student's t-test.

human rhabdomyosarcoma [2] = test: growth inhibition of human rhabdomyosarcoma (in vitro); assay type: cell-based; conditions: same concentration as in the SW-13 assay
breast cancer cells = test: growth of cell lines growing independently from FGF; assay type: cell-based; conditions: such as breast cancer cells
From the text: (§3) FIG. 3 illustrates the competitive mechanism of FGF-dependent growth inhibition by the retro-peptide of the present invention. […] This clearly establishes the specificity of the FGF-receptor inhibition by the present retro-peptide.

SW-13 cells = test: FGF-stimulated colony formation of SW-13 cells (FIG. 3); assay type: cell-based, human
From the text: FIG. 3 illustrates the competitive mechanism of FGF-dependent growth inhibition by a retro-peptide of the present invention.
as §3
In FIG. 3, "Co" refers to a control, while "A" refers to the antero-peptideand "R" refers to the retro-peptide.

human rhabdomyosarcoma [3] = test: human rhabdomyosarcoma xenograft in athymic nude mice (FIG. 6); assay type: in vivo
Description: Animal studies with human rhabdomyosarcoma growing in athymic nude mice were carried out with the 15 mer peptide. Tumors were allowed to grow subcutaneously and peptide (25 mg/kg of body weight) dissolved in saline was injected for eight days daily intraperitoneally. After three weeks the tumor size in a control group treated only with saline solution was 26.6±6.8 mm^2. The tumor size in the peptide-treated animals was 5.4±1.6 mm^2. […] This is illustrated in FIG. 6.
as §1, §2

For “NH2 --YRSRK--YSSWY-CO2 H [10-mer sequence, reference compound]”, which “inhibition of SW-13 cell growth” value (human SW-13 cells; FIG. 4) is on record?
Its value is “essentially no such inhibition”.

And the “inhibition of SW-13 cell growth” value (human SW-13 cells; FIG. 4, listed as 10-mer)?
Its value is “loss of activity”.

With “NH2 --YRSRK--YSSWY-VALKR--CO2 H [15-mer sequence]” as the substance, how does the “amount added at which inhibition of SW-13 cell growth becomes almost complete” value (human SW-13 cells; FIG. 4, about 100 μg/ml and greater) read?
The value was “about 100 μg/ml”.

With “RKLAVYWSSYKRSRY [retro-peptide, NH2 --RKLAV--YWSSY--KRSRY--COOH]” as the substance, how does the solubility in water (water solubility) read?
Its solubility in water is “water-soluble”.

And the “effectiveness against human melanoma” value (human melanoma)?
The value was “effective at the same concentration”.

And the “FGF-stimulated growth of normal human cells” value (normal human cells)?
The value was “blocks FGF-stimulated growth”.

What about the “inhibition in growth assay with human SW-13 cells” value (human SW-13 cells; FIG. 2) of the same substance?
The value was “inhibitory”.

And the “potency in SW-13 growth assay relative to the antero-peptide” value (human SW-13 cells; FIG. 2, retro-peptide versus antero-peptide)?
Its value is “much more potent”.

What about the “body weight and signs of illness” value [1] of the same substance?
Its value is “did not lose weight or show any other signs of major illness”.

What about the tolerability [1] of the same substance?
Its tolerability is “tolerated the peptide well”.

And the “effectiveness against human rhabdomyosarcoma” value (human rhabdomyosarcoma [2])?
Its value is “effective at the same concentration”.

What about the “inhibition of cell lines growing independently from FGF” value (breast cancer cells) of the same substance?
The value was “neither of the antero-peptide nor retro-peptide inhibit”.

And the “dose-response curve of FGF-stimulated colony formation of SW-13 cells” value (SW-13 cells; competitive mechanism)?
Its value is “shifted to the right without affecting the maximum achieved”.

What about the “mean ± standard error tumor size” value (human rhabdomyosarcoma [3]; after 24 days of observation, 25 mg/kg daily i.p. for 8 days, saline control 26.6±6.8, p<0.003) of the same substance?
Its value is 5.0±1.6 mm^2.

What about the tumor size (human rhabdomyosarcoma [3]; after three weeks, 25 mg/kg daily i.p. for eight days, saline control 26.6±6.8, p<0.003) of the same substance?
Its tumor size is 5.4±1.6 mm^2.

What does the source list for “YRSRKYSSWYVALKR [antero-peptide, NH2 --YRSRK--YSSWY--VALKR--COOH, reference compound]”?
inhibition in growth assay with human SW-13 cells (human SW-13 cells; FIG. 2): inhibitory; inhibition of cell lines growing independently from FGF (breast cancer cells): neither of the antero-peptide nor retro-peptide inhibit; potency in FGF-stimulated SW-13 colony formation relative to the retro-peptide (SW-13 cells; antero-peptide versus retro-peptide): significantly less potent

With “pentosanpolysulfate [reference compound]” as the substance, how does the “action on tumor size” value (human rhabdomyosarcoma [3]; 25 mg/kg daily i.p. throughout the observation period, p<0.05) read?
The value was “significant”.
